Structures can show the parent of a compound that is named as a salt.
System: HCT116
Settings: 72 h
How it was run: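 After seeding at 250 cells per well in 1536-well plates, HCT116 cells were given 5 h to attach. CellTiter-Glo luminescence, scaled to 0% for vehicle and -100% for positive control, was pattern-corrected. Fitting with a four-parameter Hill model produced IC50 and maximal efficacy.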

Compound COc1c2occc2cc2ccc(=O)oc12 [Methoxsalen] has an IC50 cell viability (ICRF193 0 nM) greater than 45.8 µM and an IC50 cell viability (ICRF193 200 nM) greater than 45.8 µM.
With COC(F)(F)C(Cl)Cl [Methoxyflurane] the IC50 cell viability (ICRF193 0 nM) was greater than 45.8 µM and the IC50 cell viability (ICRF193 200 nM) was greater than 45.8 µM.
Work on CNC(C)Cc1ccccc1OC (stereo not given) [Methoxyphenamine] yielded an IC50 cell viability (ICRF193 0 nM) greater than 45.8 µM and an IC50 cell viability (ICRF193 200 nM) greater than 45.8 µM.
For CN1C(=O)CC(C)(c2ccccc2)C1=O (stereo not given) [Methsuximide], the IC50 cell viability (ICRF193 0 nM) was greater than 45.8 µM and the IC50 cell viability (ICRF193 200 nM) was greater than 45.8 µM.
Work on CN1C(CCl)Nc2cc(Cl)c(S(N)(=O)=O)cc2S1(=O)=O (stereo not given) [Methyclothiazide] yielded an IC50 cell viability (ICRF193 0 nM) greater than 45.8 µM and an IC50 cell viability (ICRF193 200 nM) greater than 45.8 µM.
COC(=O)CCC(=O)CN [Methyl delta-aminolevulinate hydrochloride] was tested, and the IC50 cell viability (ICRF193 0 nM) was greater than 45.8 µM and the IC50 cell viability (ICRF193 200 nM) was greater than 45.8 µM.
With COC(=O)c1cccnc1 [Methyl nicotinate] the IC50 cell viability (ICRF193 0 nM) was greater than 45.8 µM and the IC50 cell viability (ICRF193 200 nM) was greater than 45.8 µM.
COC(=O)c1ccccc1O [Methyl salicylate] gave an IC50 cell viability (ICRF193 0 nM) greater than 45.8 µM and an IC50 cell viability (ICRF193 200 nM) greater than 45.8 µM.
With C[N+]1(C)[C@@H]2CC[C@H]1C[C@@H](OC(=O)C(CO)c1ccccc1)C2 (stereo not given in full) [Methylatropine nitrate] the IC50 cell viability (ICRF193 0 nM) was greater than 45.8 µM and the IC50 cell viability (ICRF193 200 nM) was greater than 45.8 µM.
C[C@](N)(Cc1ccc(O)c(O)c1)C(=O)O [Methyldopa] gave an IC50 cell viability (ICRF193 0 nM) greater than 45.8 µM and an IC50 cell viability (ICRF193 200 nM) greater than 45.8 µM.
Work on C[N@+]1(CC2CC2)CC[C@]23c4c5ccc(O)c4O[C@H]2C(=O)CC[C@@]3(O)[C@H]1C5 [Methylnaltrexone Bromide] yielded an IC50 cell viability (ICRF193 0 nM) greater than 45.8 µM and an IC50 cell viability (ICRF193 200 nM) greater than 45.8 µM.
Compound COC(=O)c1ccc(O)cc1 [Methylparaben] has an IC50 cell viability (ICRF193 0 nM) greater than 45.8 µM and an IC50 cell viability (ICRF193 200 nM) greater than 45.8 µM.
With CC1CCN(CCCC(=O)c2ccc(F)cc2)CC1 [Methylperone] the IC50 cell viability (ICRF193 0 nM) was greater than 45.8 µM and the IC50 cell viability (ICRF193 200 nM) was greater than 45.8 µM.
CCC(=O)O[C@]1(C(=O)COC(C)=O)CC[C@H]2[C@@H]3C[C@H](C)C4=CC(=O)C=C[C@]4(C)[C@H]3[C@@H](O)C[C@@]21C [Methylprednisolone aceponate] gave an IC50 cell viability (ICRF193 0 nM) greater than 45.8 µM and an IC50 cell viability (ICRF193 200 nM) greater than 45.8 µM.
Work on CC(=O)OCC(=O)[C@@]1(O)CC[C@H]2[C@@H]3C[C@H](C)C4=CC(=O)C=C[C@]4(C)[C@H]3[C@@H](O)C[C@@]21C [Methylprednisolone acetate] yielded an IC50 cell viability (ICRF193 0 nM) greater than 45.8 µM and an IC50 cell viability (ICRF193 200 nM) greater than 45.8 µM.
C[C@H]1C[C@@H]2[C@H]([C@@H](O)C[C@@]3(C)[C@H]2CC[C@]3(O)C(=O)CO)[C@@]2(C)C=CC(=O)C=C12 [Methylprednisolone] was tested, and the IC50 cell viability (ICRF193 0 nM) was greater than 45.8 µM and the IC50 cell viability (ICRF193 200 nM) was greater than 45.8 µM.
Work on CC[C@@H](CO)NC(=O)[C@@H]1C=C2c3cccc4c3c(cn4C)C[C@H]2N(C)C1 [Methysergide] yielded an IC50 cell viability (ICRF193 0 nM) greater than 45.8 µM and an IC50 cell viability (ICRF193 200 nM) greater than 45.8 µM.
In the case of Cc1cc2c(cc1S(N)(=O)=O)S(=O)(=O)CCC2 [Meticrane], the IC50 cell viability (ICRF193 0 nM) is reported as greater than 45.8 µM and the IC50 cell viability (ICRF193 200 nM) is reported as greater than 45.8 µM.
For CC(=O)Oc1c(C)cc(OCC(O)CNC(C)C)c(C)c1C (stereo not given) [Metipranolol], the IC50 cell viability (ICRF193 0 nM) was greater than 45.8 µM and the IC50 cell viability (ICRF193 200 nM) was greater than 45.8 µM.
CCN(CC)CCNC(=O)c1cc(Cl)c(N)cc1OC [Metoclopramide] showed an IC50 cell viability (ICRF193 0 nM) greater than 45.8 µM and an IC50 cell viability (ICRF193 200 nM) greater than 45.8 µM.
COc1ccc2cc1Oc1cc3c(cc1OC)CC[N+](C)(C)[C@H]3Cc1ccc(cc1)Oc1c(OC)c(OC)cc3c1[C@@H](C2)[N+](C)(C)CC3 [Metocurine iodide] showed an IC50 cell viability (ICRF193 0 nM) greater than 45.8 µM and an IC50 cell viability (ICRF193 200 nM) greater than 45.8 µM.
Cc1ccccc1N1C(=O)c2cc(S(N)(=O)=O)c(Cl)cc2NC1C (stereo not given) [Metolazone] showed an IC50 cell viability (ICRF193 0 nM) greater than 45.8 µM and an IC50 cell viability (ICRF193 200 nM) greater than 45.8 µM.
For COC(=O)c1cncn1C(C)c1ccccc1 (stereo not given) [Metomidate hydrochloride], the IC50 cell viability (ICRF193 0 nM) was greater than 45.8 µM and the IC50 cell viability (ICRF193 200 nM) was greater than 45.8 µM.
COCCc1ccc(OCC(O)CNC(C)C)cc1 (stereo not given) [Metoprolol tartrate] showed an IC50 cell viability (ICRF193 0 nM) greater than 45.8 µM and an IC50 cell viability (ICRF193 200 nM) greater than 45.8 µM.
With CC(=O)Nc1c(I)c(C(=O)N[C@H]2C(O)O[C@H](CO)[C@@H](O)[C@@H]2O)c(I)c(N(C)C(C)=O)c1I (stereo not given in full) [Metrizamide] the IC50 cell viability (ICRF193 0 nM) was greater than 45.8 µM and the IC50 cell viability (ICRF193 200 nM) was greater than 45.8 µM.
For CC(=O)Nc1c(I)c(C(=O)O)c(I)c(N(C)C(C)=O)c1I [Metrizoate sodium], the IC50 cell viability (ICRF193 0 nM) was greater than 45.8 µM and the IC50 cell viability (ICRF193 200 nM) was greater than 45.8 µM.
Compound Cc1ncc([N+](=O)[O-])n1CCO [Metronidazole] has an IC50 cell viability (ICRF193 0 nM) greater than 45.8 µM and an IC50 cell viability (ICRF193 200 nM) greater than 45.8 µM.
CC(C)(C(=O)c1cccnc1)c1cccnc1 [Metyrapone] was tested, and the IC50 cell viability (ICRF193 0 nM) was greater than 45.8 µM and the IC50 cell viability (ICRF193 200 nM) was greater than 45.8 µM.
Work on C[C@](N)(Cc1ccc(O)cc1)C(=O)O [Metyrosine] yielded an IC50 cell viability (ICRF193 0 nM) greater than 45.8 µM and an IC50 cell viability (ICRF193 200 nM) greater than 45.8 µM.
With CC1COC2(c3ccccc3Cl)c3cc(Cl)ccc3NC(=O)CN12 (stereo not given) [Mexazolam] the IC50 cell viability (ICRF193 0 nM) was greater than 45.8 µM and the IC50 cell viability (ICRF193 200 nM) was greater than 45.8 µM.
